Test results: ChEMBL document CHEMBL1955731, “Design and synthesis of novel bone-targeting dual-action pro-drugs for the treatment and reversal of osteoporosis” (Bioorg Med Chem, 2012); call rule not given here

Experiments:
[1] = tested on: Plasma; test: Prodrug conversion in rat plasma assessed as compound conversion to 7-((R)-2-((R,E)-4,4-difluoro-3-hydroxy-4-phenylbut-1-enyl)-5-oxopyrrolidin-1-yl)heptanoic acid at 100 ug/ml after 30 mins by HPLC analysis; assay type: ADME, cell-free; conditions: 0.5 h
[2] = tested on: Bone; test: Binding affinity to rat bone at 0.1 mg/ml after 10 mins; assay type: ADME, tissue-based, Bone element
[3] = tested on: Bone; test: Drug uptake in Sprague-Dawley rat bone at 10 mg/kg, iv after 2 days; assay type: ADME, organism-based, Bone element; design: dose 10 mg/kg, route intravenous; conditions: in vivo, 48 h
[4] = Elimination half life in Sprague-Dawley rat at 10 mg/kg, iv; assay type: ADME, organism-based; design: dose 10 mg/kg, route intravenous; conditions: in vivo, read-out: beta t1/2
[5] = tested on: Bone; test: Drug uptake in Sprague-Dawley rat bone at 10 mg/kg, iv after 6 hrs; assay type: ADME, organism-based, Bone element; design: dose 10 mg/kg, route intravenous; conditions: in vivo
[6] = tested on: Bone; test: Drug uptake in Sprague-Dawley rat bone at 10 mg/kg, iv after 14 days; assay type: ADME, organism-based, Bone element; design: dose 10 mg/kg, route intravenous; conditions: in vivo, 336 h
[7] = tested on: Bone; test: Drug uptake in Sprague-Dawley rat bone at 10 mg/kg, iv after 7 days; assay type: ADME, organism-based, Bone element; design: dose 10 mg/kg, route intravenous; conditions: in vivo, 168 h
[8] = Drug excretion in Sprague-Dawley rat feces at 5 mg/kg, iv after 24 hrs; assay type: ADME, organism-based; design: dose 5 mg/kg, route intravenous; conditions: in vivo
[9] = Elimination half life in Sprague-Dawley rat at 5 mg/kg, iv; assay type: ADME, organism-based; design: dose 5 mg/kg, route intravenous; conditions: in vivo, read-out: beta t1/2
[10] = tested on: Bone; test: Drug uptake in Sprague-Dawley rat bone at 5 mg/kg, iv after 28 days; assay type: ADME, organism-based, Bone element; design: dose 5 mg/kg, route intravenous; conditions: in vivo, 672 h
[11] = tested on: Bone; test: Drug uptake in Sprague-Dawley rat bone at 5 mg/kg, iv after 7 days; assay type: ADME, organism-based, Bone element; design: dose 5 mg/kg, route intravenous; conditions: in vivo, 168 h
[12] = tested on: Bone; test: Drug uptake in Sprague-Dawley rat bone at 5 mg/kg, iv after 14 days; assay type: ADME, organism-based, Bone element; design: dose 5 mg/kg, route intravenous; conditions: in vivo, 336 h
[13] = Drug excretion in Sprague-Dawley rat urine at 5 mg/kg, iv after 24 hrs; assay type: ADME, organism-based; design: dose 5 mg/kg, route intravenous; conditions: in vivo
[14] = tested on: Bone; test: Drug uptake in rat bone after 5 mins; assay type: ADME, tissue-based, Bone element; conditions: in vivo
[15] = tested on: Rattus norvegicus; test: Toxicity in Sprague-Dawley rat at 5 mg/kg, iv; assay type: organism-based; design: dose 5 mg/kg, route intravenous; conditions: in vivo
[16] = tested on: Bone; test: Drug uptake in Sprague-Dawley rat bone at 5 mg/kg, iv after 24 hrs; assay type: ADME, organism-based, Bone element; design: dose 5 mg/kg, route intravenous; conditions: in vivo
[17] = tested on: Plasma; test: Prodrug conversion in rat plasma assessed as compound conversion to 7-((R)-2-((R,E)-4,4-difluoro-3-hydroxy-4-phenylbut-1-enyl)-5-oxopyrrolidin-1-yl)heptanoic acid at 100 ug/ml for 96 hrs by HPLC-MS-MS analysis; assay type: ADME, cell-free

Question: Which results are given for `CCOC(=O)CCCCCCN1C(=O)CC[C@@H]1/C=C/[C@@H](O)C(F)(F)c1ccccc1`?
Answer: Drug metabolism [1]: Active; Activity [2]: Not Active

Question: With `CCN(CC)CC.[3H]C([3H])([3H])COC(=O)CCCCCCN1C(=O)CC[C@@H]1/C=C/[C@@H](OC(=O)Cc1ccc(OC(=O)NCCCC(O)(P(=O)(O)O)P(=O)(O)O)cc1)C(F)(F)c1ccccc1` as the compound, how does the Drug uptake [3] read?
Answer: The Drug uptake was 4.9%.

Question: And the half-life [4]?
Answer: Its half-life is under 30 min.

Question: What about the Drug uptake [5] of the same compound?
Answer: Its Drug uptake is 5.9%.

Question: What about the Drug uptake [6] of the same compound?
Answer: The Drug uptake was 1.4%.

Question: And the Drug uptake [7]?
Answer: The Drug uptake was 2.2%.

Question: Which Drug excretion [8] does the source give for `[3H]C([3H])([3H])COC(=O)CCCCCCN1C(=O)CC[C@@H]1/C=C/[C@@H](OC(=O)NCCCC(O)(P(=O)(O)O)P(=O)(O)O)C(F)(F)c1ccccc1` here?
Answer: Its Drug excretion is “Active”.

Question: And the half-life [9]?
Answer: Its half-life is under 15 min.

Question: What about the Drug uptake [10] of the same compound?
Answer: The Drug uptake was 5.6%.

Question: And the Drug uptake [11]?
Answer: The Drug uptake was 8%.

Question: What about the Drug uptake [12] of the same compound?
Answer: Its Drug uptake is 6.2%.

Question: And the Drug excretion [13]?
Answer: Its Drug excretion is “Not Active”.

Question: And the Drug uptake [14]?
Answer: The Drug uptake was 96%.

Question: And the Activity [15]?
Answer: The Activity was “Non-toxic”.

Question: And the Activity [2]?
Answer: Its Activity is 90%.

Question: And the Drug uptake [16]?
Answer: The Drug uptake was 9.4%.

Question: For `O=C1CC[C@H](/C=C/[C@@H](O)C(F)(F)c2ccccc2)N1CCCCCCc1nnn[nH]1`, which Activity [2] is on record?
Answer: Its Activity is “Not Active”.

Question: Which Activity [2] does the source give for `O=C(O)CCCCCCN1C(=O)CC[C@@H]1/C=C/[C@@H](O)C(F)(F)c1ccccc1` here?
Answer: The Activity was “Not Active”.

Question: Which Drug metabolism [17] does the source give for `CCOC(=O)CCCCCCN1C(=O)CC[C@@H]1/C=C/[C@@H](OC(=O)NCCCC(O)(P(=O)(O)O)P(=O)(O)O)C(F)(F)c1ccccc1` here?
Answer: Its Drug metabolism is “Not Active”.
